# From US9738637B2, “Histone demethylase inhibitors” (Quanticel Pharmaceuticals, Inc., priority 2013, dated 2017)
# Structures can show the parent of a compound that is named as a salt.
# Experiments:
# [1] = target: JMJD2A (Homo sapiens (Human), UniProt O75164); assay: JMJD2A in vitro enzyme inhibition assay (TR-FRET); type: biochemical; details: H3K9me3-biotin peptide
# Experimental: This assay determines the ability of a test compound to inhibit Jarid1A, Jarid1B, JMJD2C, and JMJD2A demethylase activity.
# Reaction product was determined quantitatively by TR-FRET after the addition of detection reagent Phycolink Streptavidin-allophycocyanin (Prozyme) and Europium-anti-di-methylated histone H3 lysine 9 (H3K9me2) antibody (PerkinElmer) in the presence of 5 mM EDTA in LANCE detection buffer (PerkinElmer) at a final concentration of 50 nM and 1 nM, respectively.
# The assay reaction was initiated by the following: 2 μl of the mixture of 900 nM H3K9me3-biotin labeled peptide and 6 μM alpha-ketoglutaric acid with 2 μl of 11-point serial diluted inhibitor in 3% DMSO were added to each well of plate, followed by the addition of 2 μl of 6 nM JMJD2A to initiate the reaction. The reaction mixture was incubated at room temperature for 30 minutes, and terminated by the addition of 6 μl of 5 mM EDTA in LANCE detection buffer containing 100 nM Phycolink Streptavidin-allophycocyanin and 2 nM Europium-anti-H3K9me2 antibody.
# The ability of the compounds disclosed herein to inhibit demethylase activity was quantified and the respective IC50 value was determined.
# [2] = target: Jarid1B (Homo sapiens (Human), UniProt Q9UGL1); assay: Jarid1B in vitro enzyme inhibition assay (TR-FRET); type: biochemical; details: TR-FRET, H3K4me3-biotin peptide; read-out: IC50 Jarid1B
# Jarid1B, sequence (Q9UGL1 2-751): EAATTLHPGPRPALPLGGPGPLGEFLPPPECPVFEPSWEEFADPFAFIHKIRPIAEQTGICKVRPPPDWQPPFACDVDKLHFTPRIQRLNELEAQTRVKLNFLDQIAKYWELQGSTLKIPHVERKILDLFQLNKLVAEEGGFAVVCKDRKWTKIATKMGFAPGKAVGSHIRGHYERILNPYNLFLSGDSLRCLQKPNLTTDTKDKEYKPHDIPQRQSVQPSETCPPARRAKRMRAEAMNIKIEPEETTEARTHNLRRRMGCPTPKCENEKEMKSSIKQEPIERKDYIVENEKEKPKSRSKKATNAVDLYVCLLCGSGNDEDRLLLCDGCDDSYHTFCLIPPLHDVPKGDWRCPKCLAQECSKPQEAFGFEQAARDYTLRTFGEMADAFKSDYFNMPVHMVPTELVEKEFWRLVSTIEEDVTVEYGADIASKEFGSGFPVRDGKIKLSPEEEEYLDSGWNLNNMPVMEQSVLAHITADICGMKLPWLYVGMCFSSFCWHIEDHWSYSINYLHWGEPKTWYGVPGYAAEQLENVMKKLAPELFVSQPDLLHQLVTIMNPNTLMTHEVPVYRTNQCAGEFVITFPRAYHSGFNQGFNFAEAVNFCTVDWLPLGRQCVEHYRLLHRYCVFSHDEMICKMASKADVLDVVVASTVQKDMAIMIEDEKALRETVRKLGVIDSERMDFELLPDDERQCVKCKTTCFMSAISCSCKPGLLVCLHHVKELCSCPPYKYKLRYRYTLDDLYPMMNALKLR
# [3] = target: JMJD2C (Homo sapiens (Human), UniProt Q9H3R0); assay: JMJD2C in vitro enzyme inhibition assay (TR-FRET); type: biochemical; details: TR-FRET, H3K9me3-biotin peptide; read-out: IC50 JNJD2C
# JMJD2C, sequence (Q9H3R0 2-372): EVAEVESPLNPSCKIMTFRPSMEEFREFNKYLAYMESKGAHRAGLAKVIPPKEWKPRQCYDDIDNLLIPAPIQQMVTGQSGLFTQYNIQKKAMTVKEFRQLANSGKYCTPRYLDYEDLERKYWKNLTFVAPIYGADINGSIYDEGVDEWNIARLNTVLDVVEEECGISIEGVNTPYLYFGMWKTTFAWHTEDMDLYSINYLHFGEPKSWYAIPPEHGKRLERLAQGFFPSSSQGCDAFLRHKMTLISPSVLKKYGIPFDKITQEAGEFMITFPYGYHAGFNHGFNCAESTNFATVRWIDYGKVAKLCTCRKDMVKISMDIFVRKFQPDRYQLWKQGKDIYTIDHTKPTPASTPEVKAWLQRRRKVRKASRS
# [4] = target: Jarid1A (Homo sapiens (Human), UniProt P29375); assay: Jarid1A in vitro enzyme inhibition assay (TR-FRET); type: biochemical; details: H3K4me3-biotin peptide
# Jarid1A, sequence (P29375 1-1090): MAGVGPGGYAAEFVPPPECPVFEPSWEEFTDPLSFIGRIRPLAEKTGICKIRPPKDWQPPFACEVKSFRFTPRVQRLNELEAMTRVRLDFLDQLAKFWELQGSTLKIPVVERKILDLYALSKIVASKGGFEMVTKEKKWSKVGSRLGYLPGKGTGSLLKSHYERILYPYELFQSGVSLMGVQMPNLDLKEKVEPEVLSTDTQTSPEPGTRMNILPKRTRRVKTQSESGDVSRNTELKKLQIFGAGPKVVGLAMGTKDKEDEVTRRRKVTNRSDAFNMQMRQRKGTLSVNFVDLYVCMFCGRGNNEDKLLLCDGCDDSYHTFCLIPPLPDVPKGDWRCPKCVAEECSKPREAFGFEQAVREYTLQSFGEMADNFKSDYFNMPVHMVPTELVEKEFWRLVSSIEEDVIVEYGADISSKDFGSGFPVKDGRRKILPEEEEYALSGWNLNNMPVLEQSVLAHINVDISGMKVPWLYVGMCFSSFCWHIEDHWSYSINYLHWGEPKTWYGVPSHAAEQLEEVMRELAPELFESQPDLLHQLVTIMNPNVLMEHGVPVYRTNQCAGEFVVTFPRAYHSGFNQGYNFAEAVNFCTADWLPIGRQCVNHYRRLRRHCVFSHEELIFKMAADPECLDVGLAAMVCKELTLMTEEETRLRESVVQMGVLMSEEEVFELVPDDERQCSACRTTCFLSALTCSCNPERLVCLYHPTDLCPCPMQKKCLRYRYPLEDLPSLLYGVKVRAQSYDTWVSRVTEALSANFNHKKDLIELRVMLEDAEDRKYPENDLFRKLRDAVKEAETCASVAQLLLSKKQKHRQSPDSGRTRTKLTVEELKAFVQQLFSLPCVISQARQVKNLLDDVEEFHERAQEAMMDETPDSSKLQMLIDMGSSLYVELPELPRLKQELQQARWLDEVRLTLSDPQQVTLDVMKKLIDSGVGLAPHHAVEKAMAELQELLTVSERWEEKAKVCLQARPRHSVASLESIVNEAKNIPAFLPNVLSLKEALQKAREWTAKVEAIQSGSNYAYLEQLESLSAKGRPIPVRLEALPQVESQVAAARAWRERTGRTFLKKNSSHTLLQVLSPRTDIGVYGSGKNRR
# [5] = system: KDM5A and KDM5B; assay: In vitro cell-based assay, ZR-75-1 cell line: tri-methyl H3K4 immuno-blotting (cellular inhibition of KDM5A/B); details: ZR-75-1 breast cancer cells, 72 hours, read-out: IC50 ZR-75-1 cell-MOA
# Text: This quantitative immuno-blotting assay measures the amount tri-methylated histone H3 at amino acid Lysine number 4, a specific substrate […] of the direct enzymatic activity of the histone demethylases KDM5A and KDM5B from extracts of the ZR-75-1 breast cancer cell line.
# This assay is a fluorometric immunoassay for the quantification of tri-methyl H3K4 extracted from cells treated with test compound and is used as a measure of the cellular inhibition of KDM5A/B.
# Cells were left in the presence of test compound for 72 hours. Extracts were prepared containing all of the cellular histone material using detergent based lysis and sonication methods. These lysates were subsequently normalized for total protein content using a colorimetric bicinchonic acid assay (MicroBCA Pierce/Thermo Scientific). Normalized cell extracts were then subjected to typical immuno-blotting procedures using NuPage reagents (Life Technologies). Electrophoretically separated histones were then transferred and immobilized using polyvinylidene difluoride membrane (Immobilon-FL Millipore). The amount of tri-methylated lysine 4 of histone H3 was detected using an antibody specific to the tri-methylated state (Cell Signaling Technologies) and quantified on an infrared imager using a densitometry software package (Odyssey CLx, Image Studio, Li-Cor). This background subtracted densitometry value was reported as a ration of the GAPDH amount for that sample and then calculated as a percent of the DMSO treated sample. The software package XL-fit (IDBS) was then used to calculate a relative IC50 value for the dilution series of a given test compound according to the equation: fit=(D+((Vmax*(x^n))/((x^n)+(Km^n)))).
# JMJD2A, sequence (O75164 1-350): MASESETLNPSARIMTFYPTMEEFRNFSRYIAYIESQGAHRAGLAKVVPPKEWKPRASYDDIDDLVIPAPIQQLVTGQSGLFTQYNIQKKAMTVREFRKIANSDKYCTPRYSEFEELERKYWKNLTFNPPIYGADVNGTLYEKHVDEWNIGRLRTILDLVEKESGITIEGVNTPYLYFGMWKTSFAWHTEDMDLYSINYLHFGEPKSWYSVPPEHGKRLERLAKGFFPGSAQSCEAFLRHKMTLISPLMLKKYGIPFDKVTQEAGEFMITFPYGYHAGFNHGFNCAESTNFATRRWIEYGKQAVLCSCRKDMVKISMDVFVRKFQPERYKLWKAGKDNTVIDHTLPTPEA
IC50 [1],IC50 [2],IC50 [3],IC50 [4],IC50 [5],SMILES
< 100 nM,100 to 1000 nM,100 to 1000 nM,100 to 1000 nM,,"Cc1ccccc1-c1cc2nccc(C(=O)O)c2[nH]1 [Example 3, 2-(2-methylphenyl)-1H-pyrrolo[3,2-b]pyridine-7-carboxylic acid]"
100 to 1000 nM,< 100 nM,< 100 nM,100 to 1000 nM,,"O=C(O)c1ccnc2cc(Cc3ccc(Cl)c(OC(F)(F)F)c3)[nH]c12 [Example 142, 2-[4-chloro-3-(trifluoromethoxy)benzyl]-1H-pyrrolo[3,2-b]pyridine-7-carboxylic acid]"
100 to 1000 nM,1000 to 10000 nM,< 100 nM,1000 to 10000 nM,,"O=C(O)c1ccnc2cc(Cc3ccc(Cl)c(C(F)(F)F)c3)[nH]c12 [Example 136, 2-[4-chloro-3-(trifluoromethyl)benzyl]-1H-pyrrolo[3,2-b]pyridine-7-carboxylic acid]"
< 100 nM,< 100 nM,< 100 nM,< 100 nM,,"O=C(O)c1ccnc2cc(C(=O)N3CCCC3)[nH]c12 [Example 99, 2-(pyrrolidin-1-ylcarbonyl)-1H-pyrrolo[3,2-b]pyridine-7-carboxylic acid]"
1000 to 10000 nM,< 100 nM,< 100 nM,100 to 1000 nM,,"O=C(O)c1ccnc2cc(Cc3ccc(Cl)c(OCC4CC4)c3)[nH]c12 [Example 138, 2-[4-chloro-3-(cyclopropylmethoxy)benzyl]-1H-pyrrolo[3,2-b]pyridine-7-carboxylic acid]"
< 100 nM,1000 to 10000 nM,< 100 nM,1000 to 10000 nM,,"O=C(O)c1ccnc2cc(Cc3ccc(F)c(F)c3)[nH]c12 [Example 126, 2-(3,4-difluorobenzyl)-1H-pyrrolo[3,2-b]pyridine-7-carboxylic acid]"
,< 100 nM,< 100 nM,< 100 nM,1000 to 10000 nM,"O=C(O)c1ccnc2cc(COc3ccc(Cl)cc3)[nH]c12 [Example 64, 2-[(4-chlorophenoxy)methyl]-1H-pyrrolo[3,2-b]pyridine-7-carboxylic acid]"
100 to 1000 nM,1000 to 10000 nM,100 to 1000 nM,1000 to 10000 nM,,"O=C(O)c1ccnc2cc(Cc3cc(F)c(Cl)c(Cl)c3)[nH]c12 [Example 132, 2-(3,4-dichloro-5-fluorobenzyl)-1H-pyrrolo[3,2-b]pyridine-7-carboxylic acid]"
100 to 1000 nM,100 to 1000 nM,< 100 nM,1000 to 10000 nM,,"Cc1cc(Cc2cc3nccc(C(=O)O)c3[nH]2)ccc1Cl [Example 134, 2-(4-chloro-3-methylbenzyl)-1H-pyrrolo[3,2-b]pyridine-7-carboxylic acid]"
100 to 1000 nM,100 to 1000 nM,100 to 1000 nM,100 to 1000 nM,> 10000 nM,"O=C(O)c1ccnc2cc(Cc3ccccc3)[nH]c12 [Example 7, 2-benzyl-1H-pyrrolo[3,2-b]pyridine-7-carboxylic acid, sodium salt]"
,< 100 nM,100 to 1000 nM,< 100 nM,1000 to 10000 nM,"O=C(O)c1ccnc2cc(COc3ccc(F)cc3)[nH]c12 [Example 60, 2-[(4-fluorophenoxy)methyl]-1H-pyrrolo[3,2-b]pyridine-7-carboxylic acid]"
,< 100 nM,< 100 nM,< 100 nM,> 10000 nM,"Cc1cccc(OCc2cc3nccc(C(=O)O)c3[nH]2)c1 [Example 74, 2-[(3-methylphenoxy)methyl]-1H-pyrrolo[3,2-b]pyridine-7-carboxylic acid]"
,100 to 1000 nM,100 to 1000 nM,< 100 nM,> 10000 nM,"CC(O)(c1ccccc1)c1cc2nccc(C(=O)O)c2[nH]1 (racemic) [Example 46, (±)-2-(1-hydroxy-1-phenylethyl)-1H-pyrrolo[3,2-b]pyridine-7-carboxylic acid]"
,> 10000 nM,> 10000 nM,> 10000 nM,> 10000 nM,"COC(=O)c1ccnc2cc(Cc3ccccc3)[nH]c12 [Example 6, methyl 2-benzyl-1H-pyrrolo[3,2-b]pyridine-7-carboxylate]"
100 to 1000 nM,< 100 nM,100 to 1000 nM,< 100 nM,,"O=C(O)c1ccnc2cc(C(O)C3CCOCC3)[nH]c12 (racemic) [Example 43, (±)-2-[hydroxy(oxan-4-yl)methyl]-1H-pyrrolo[3,2-b]pyridine-7-carboxylic acid]"
100 to 1000 nM,1000 to 10000 nM,< 100 nM,1000 to 10000 nM,,"O=C(O)c1ccnc2cc(Cc3ccc(Cl)c(Cl)c3)[nH]c12 [Example 130, 2-(3,4-dichlorobenzyl)-1H-pyrrolo[3,2-b]pyridine-7-carboxylic acid]"
100 to 1000 nM,< 100 nM,< 100 nM,< 100 nM,,"O=C(O)c1ccnc2cc(COc3ccccc3)[nH]c12 [Example 39, 2-(phenoxymethyl)-1H-pyrrolo[3,2-b]pyridine-7-carboxylic acid]"
100 to 1000 nM,< 100 nM,100 to 1000 nM,< 100 nM,,"COc1cccc(C(O)c2cc3nccc(C(=O)O)c3[nH]2)c1 (racemic) [Example 24, (±)-2-[hydroxy-(3-methoxyphenyl)methyl]-1H-pyrrolo[3,2-b]pyridine-7-carboxylic acid]"
100 to 1000 nM,100 to 1000 nM,100 to 1000 nM,100 to 1000 nM,,"O=C(O)c1ccnc2cc(-c3ccccc3)[nH]c12 [Example 2, 2-phenyl-1H-pyrrolo[3,2-b]pyridine-7-carboxylic acid]"
